Experiments:
[1] = cholesterol crystal dissolution; type: physicochemical; conditions: monomers; 20 mg/mL, 37° C., 2 hours; NBD-cholesterol fluorescence
Experimental: First, in order to form cholesterol crystals, a solution including 2 mg/ml of cholesterol and 0.2 mg/ml of NBD-cholesterol in ethanol was prepared, and then distilled water (30% v/v) was added to the solution to induce crystallization. The solution was completely dried under vacuum, resuspended in PBS, and sonicated for 30 seconds. 20 μL of 5 mM cholesterol was mixed with 300 μL of 20 mg/mL cyclodextrin and reacted at 37° C. for 2 hours. After centrifuging the mixture at 14,000 g for 30 minutes to remove undissolved cholesterol crystals, the supernatant was collected and the fluorescence of dissolved NBD-cholesterol was measured at 480 nm/520 nm, and the cholesterol crystal dissolution levels depending on the molecular weights of hydroxypropyl-alpha-, -beta-, -gamma-cyclodextrin monomers and polymers were confirmed.

Raw 264.7 cells [2] = test: plasma membrane cholesterol extraction from fixed cells; type: cell-based; conditions: for plasma membrane cholesterol extraction: monomers, 20 mg/mL in PBS, 37° C., 1 hour, fixed cells
Experimental: Raw 264.7 cells were maintained in a Dulbecco's modified Eagle's medium (DMEM) containing 10% fetal bovine serum (FBS) and 1% penicillin/streptomycin. In order to suppress endocytosis of cyclodextrin and induce only plasma membrane cholesterol extraction, 1×10^5 cells were fixed at room temperature for 20 minutes using formaldehyde, and then cyclodextrin was dissolved in PBS in a concentration of 20 mg/mL and treated to the cells at 37° C. for 1 hour. The treated PBS was collected, centrifuged at a rate of 14,000 g for 30 minutes to remove cell debris and microvesicles, and then the cholesterol concentration in the supernatant was quantified using a Cholesterol Quantification Kit (Sigma Aldrich). The plasma membrane cholesterol extraction of gamma-cyclodextrins and polymers thereof was compared with alpha and beta-cyclodextrins and polymers thereof. […] The plasma membrane cholesterol extraction induced by gamma-cyclodextrins and polymers thereof was compared with alpha- and beta-cyclodextrins and polymers thereof, and the results are shown in FIG. 5.

Raw 264.7 cells [3] = test: cytotoxicity (CCK-8 cell viability); type: cell-based; conditions: monomers, 20 mg/mL
Experimental: Raw 264.7 cells were maintained in a DMEM containing 10% FBS and 1% penicillin/streptomycin. 5×10^4 cells were dispensed in each well of a 96-well plate, and after 24 hours, the cells were treated with cyclodextrin at a concentration of 20 mg/mL. After culturing the cells at 37° C. in 5% CO2, a CCK-8 agent was added, 10 μL at a time.

[4] = system: outer hair cells in the cochlea; conditions: 5 g/kg brain weight intraventricular; one week after injection
Experimental: (§1) To assess systemic toxicity, cyclodextrin dissolved in PBS was subcutaneously injected in an amount of 10 g/kg body weight to wild-type C57/BL6 mice. […] The body weight and behavioral characteristics of the mice were observed every day for a week. The behavioral characteristics of the mice were measured according to the criteria presented in Endpoints for Mouse Abdominal Tumor Models: Refinement of Current Criteria. In order to confirm toxicity to major organs, the mice were sacrificed 7 days later, and H&E staining was performed. In order to assess ototoxicity, the mice were sacrificed 7 days later, and the outer hair cells in the cochlea were quantified through microscopic observation. […] The brain weight of the mice was calculated to be about 0.4 g according to the age, and as a result, 2 mg of cyclodextrin was dissolved in 10 μL of PBS and injected. After 7 days, the outer hair cells in the cochlea were quantified through microscopic observation.
(§2) Also, the histological analysis of the major organs of the mice after one week is shown in FIG. 24, and ototoxicity of the C57BL/6 mice was evaluated one week after subcutaneously injecting 10 g/kg of cyclodextrin and intraventricularly injecting 5 g/kg brain weight of cyclodextrin. […]

Raw 264.7 cells [5] = test: intracellular cholesterol excretion in macrophages that had taken up fluorescent cholesterol; type: cell-based; conditions: 5 mg/mL, 48 hours; PBS control set to 100%
Experimental: Raw 264.7 cells were dispensed at 5×10^4 cells per well of a 96-well plate, and after 24 hours, the cells were treated with cholesterol crystals at a concentration of 50 μM. […] The cells were cultured at 37° C. in 5% CO2 for 48 hours, and intracellular cholesterol fluorescence was analyzed using a fluorescence microscope. In addition, to investigate the effect of cyclodextrin on intracellular cholesterol metabolism, the amount of ATP-binding cassette transporter (ABCA1) involved in cholesterol excretion was quantified using a cell flow rate analyzer, and cholesteryl ester, which is a storage form of cholesterol, was quantified.

[6] = systemic toxicity (body weight, behavioral score, organ histology); conditions: 10 g/kg subcutaneous; one day after administration
Experimental: as §1, §2

[7] = system: whole blood from wild-type C57/BL6 mice; test: hemolytic activity; type: cell-based; conditions: monomers; 50 mg/ml in PBS, 37° C., 1 hour
Experimental: For hemolytic activity analysis, 30 μL of whole blood from wild-type C57/BL6 mice was mixed with 300 μL of a PBS solution containing 50 mg/ml of cyclodextrin and reacted at 37° C. for 1 hour. After centrifuging the mixture at 3,000 g for 5 minutes, the absorbance at 540 nm was measured using the supernatant.

Compound	cholesterol crystal dissolution [1] [%]	plasma membrane cholesterol extraction (Raw 264.7 cells [2]) [%]	cell viability (Raw 264.7 cells [3]) [%]	outer hair cell survival [4] [%]	level of plasma membrane cholesterol extraction (in words) (Raw 264.7 cells [2]; 20 mg/mL, compared with alpha- and beta-cyclodextrin monomers and polymers, or with the monomers)	amount of intracellular cholesterol (Raw 264.7 cells [5]) [%]	lowest behavioral score, average [6] [points]	hemolytic activity [7] [%]
hydroxypropyl-alpha-cyclodextrin	21.9	42.8	14.2	–	–	–	–	–
hydroxypropyl-gamma-cyclodextrin	12.1	5	93.9	69.7	significantly low levels of cholesterol extraction	75	–	–
cyclodextrin	–	–	–	–	–	–	6	–
CC(O)COC[C@H]1O[C@@H]2O[C@H]3[C@H](O)[C@@H](O)[C@@H](O[C@H]4[C@H](O)[C@@H](O)[C@@H](O[C@H]5[C@H](O)[C@@H](O)[C@@H](O[C@H]6[C@H](O)[C@@H](O)[C@@H](O[C@H]7[C@H](O)[C@@H](O)[C@@H](O[C@H]8[C@H](O)[C@@H](O)[C@@H](O[C@H]1[C@H](O)[C@H]2O)O[C@@H]8COCC(C)O)O[C@@H]7COCC(C)O)O[C@@H]6COCC(C)O)O[C@@H]5COCC(C)O)O[C@@H]4COCC(C)O)O[C@@H]3COCC(C)O (stereo partly drawn) [hydroxypropyl-beta-cyclodextrin]	32.3	45	9.6	27.5	–	80.5	–	97.1

Reference: patent publication US20240238327A1 (priority 2021, published 2024)
